Among the test systems are MCF7 breast; HOP-92 NSCLC; U251 CNS; COLO 205 colon; M14 melanoma; PC-3 prostate; SNB-75 CNS; SN12C renal; MDA-MB-231 breast; SK-OV-3 ovarian.
What all share (experiment): inhibition of tumour cell growth, NCI panel, 48 h

Values joined by “and” are separate entries in the source; they are usually repeats but may differ in a detail not shown here. Equal entries are not always repeated.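 Interpolation was linear, between the two tested concentrations surrounding the appropriate level; five concentrations were tested over 48 hours in 96-well plates. Here, GI50 denotes the concentration required for 50% inhibition of growth. TGI denotes the concentration required for complete inhibition of growth.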

For `O=C(Nc1ccc(Oc2ccc(F)cc2)cc1)[C@@H]1C[C@@H](Cc2ccc(F)cc2)CN1C(=O)Cn1ccnn1`, the GI50 in the assay on MCF7 breast was 3.74 µM; in the assay with HOP-92 NSCLC, 7.54 µM; in the assay with U251 CNS it was 4.79 µM; in the assay on COLO 205 colon, 5.21 µM; in the assay on M14 melanoma it was 8.54 µM; in the assay on PC-3 prostate it was 4.42 µM. For the same compound, the GI50 in the assay with SNB-75 CNS is 4.03 µM; in the assay on SN12C renal, 5.73 µM; in the assay on MDA-MB-231 breast, 8.91 µM; in the assay with SK-OV-3 ovarian, 19.5 µM. For the same compound, the TGI in the assay on MCF7 breast is 17.5 µM; in the assay with HOP-92 NSCLC it was 31.3 µM; in the assay on U251 CNS, 22.2 µM; in the assay on COLO 205 colon it was 16.8 µM; in the assay on M14 melanoma it was 25.7 µM; in the assay on PC-3 prostate it was above 37.8 µM. Also, the TGI with SNB-75 CNS is 31.8 µM; in the assay with SN12C renal, 21.8 µM; in the assay with MDA-MB-231 breast, 26.6 µM; with SK-OV-3 ovarian, above 75.7 µM.

On to `COc1cnc2c(c1)C(=O)c1c-2n(CCCNC2=NCCS2)c(=O)c2cc(F)ccc12`, for which the GI50 is 0.033 µM in the assay with MCF7 breast; 0.563 µM in the assay on HOP-92 NSCLC; 0.0442 µM in the assay with U251 CNS; 0.201 µM in the assay on COLO 205 colon; 0.17 µM with M14 melanoma; 0.208 µM with PC-3 prostate. Besides, the GI50 was 0.358 µM in the assay on SNB-75 CNS, 0.238 µM with SN12C renal, 1.14 µM in the assay on MDA-MB-231 breast and 0.182 µM in the assay with SK-OV-3 ovarian. The TGI in the assay on MCF7 breast turned out to be 1.66 µM; in the assay on HOP-92 NSCLC it was 19.7 µM; in the assay with U251 CNS, 1.35 µM; in the assay with COLO 205 colon it was 1.91 µM; in the assay with M14 melanoma it was 1.32 µM; with PC-3 prostate, 18.7 µM. For the same compound, the TGI in the assay on SNB-75 CNS came to 18.9 µM; in the assay on SN12C renal it was 12.3 µM; in the assay with MDA-MB-231 breast, 2.57 µM; with SK-OV-3 ovarian it was 0.914 µM.

Turning to `COc1cccc2c1-c1nc(N)c3c(OC)cccc3c1C2=O`, the TGI in the assay on MCF7 breast, with HOP-92 NSCLC, in the assay with U251 CNS, with COLO 205 colon, in the assay with M14 melanoma and in the assay with PC-3 prostate was above 100 µM each time. Besides, the TGI was 46.4 µM in the assay with SNB-75 CNS, above 100 µM in the assay with SN12C renal, above 100 µM in the assay with MDA-MB-231 breast and above 100 µM in the assay on SK-OV-3 ovarian.

Consider `CC(C)/C=C1\CCC(CN(C)C)C1=O` (configuration not stated), for which the TGI with MCF7 breast worked out at 1.8 µM; in the assay on HOP-92 NSCLC it was 3.47 µM; with U251 CNS, 32.7 µM; with COLO 205 colon, 1.41 µM; with M14 melanoma it was 5.52 µM; in the assay with PC-3 prostate, 14.5 µM. Besides, the TGI with SNB-75 CNS turned out to be 6.51 µM; in the assay on SN12C renal, 16.3 µM; in the assay with MDA-MB-231 breast, 3.01 µM; in the assay on SK-OV-3 ovarian, 32.4 µM.

On to `O=C1CC(c2c[nH]c3ccc(F)cc23)C(=O)N1` (configuration not stated), for which the GI50 in the assay with MCF7 breast, in the assay with HOP-92 NSCLC, with U251 CNS, with COLO 205 colon, in the assay with M14 melanoma and in the assay on PC-3 prostate was above 100 µM throughout. The GI50 with SNB-75 CNS, in the assay with SN12C renal, in the assay on MDA-MB-231 breast and with SK-OV-3 ovarian was above 100 µM throughout. Further, the TGI in the assay on MCF7 breast, with HOP-92 NSCLC, in the assay on U251 CNS, with COLO 205 colon, in the assay with M14 melanoma and with PC-3 prostate was above 100 µM throughout. For the same compound, the TGI in the assay with SNB-75 CNS, in the assay with SN12C renal, in the assay on MDA-MB-231 breast and in the assay with SK-OV-3 ovarian was above 100 µM throughout.

As to `COc1cc(CNCCCCCCN2C(=O)c3cccc4cccc(c34)C2=O)ccc1O`, the GI50 in the assay with MCF7 breast was 1.74 µM; in the assay on HOP-92 NSCLC, 2.46 µM; in the assay on U251 CNS, 4.51 µM; in the assay with COLO 205 colon, 2.54 µM; with M14 melanoma it was 1.97 µM; with PC-3 prostate, 4.42 µM. Further, the GI50 in the assay with SNB-75 CNS was 10.5 µM; in the assay on SN12C renal it was 10.1 µM; with MDA-MB-231 breast, 5.84 µM; with SK-OV-3 ovarian, 12.3 µM. In addition, the TGI in the assay with MCF7 breast came to 3.45 µM; in the assay on HOP-92 NSCLC, 17.5 µM; with U251 CNS it was 17.3 µM; in the assay with COLO 205 colon, 6.62 µM; in the assay on M14 melanoma it was 3.85 µM; in the assay with PC-3 prostate it was 18.7 µM. In addition, the TGI with SNB-75 CNS was found to be 22.4 µM; with SN12C renal it was 22 µM; in the assay on MDA-MB-231 breast, 19.6 µM; in the assay with SK-OV-3 ovarian, 24.8 µM.

Turning to `O=C1NC(=NCc2ccccc2Cl)S/C1=C\c1ccc2ncccc2c1`, the GI50 in the assay with MCF7 breast is 9.2 µM; in the assay on HOP-92 NSCLC, 5.85 µM; in the assay on U251 CNS, 6.44 µM; in the assay with COLO 205 colon it was 8.04 µM; in the assay with M14 melanoma, 16.3 µM; in the assay on PC-3 prostate it was above 25 µM. Moreover, the GI50 in the assay on SNB-75 CNS is 0.785 µM; in the assay with SN12C renal, 13.1 µM; with MDA-MB-231 breast, above 25 µM; in the assay on SK-OV-3 ovarian, 15.6 µM. For the same compound, the TGI is above 25 µM in the assay with MCF7 breast; above 22.1 µM in the assay with HOP-92 NSCLC; above 25 µM in the assay on U251 CNS; above 25 µM in the assay on COLO 205 colon; above 25 µM in the assay on M14 melanoma; above 25 µM with PC-3 prostate. Besides, the TGI in the assay with SNB-75 CNS is above 21.8 µM; with SN12C renal it was above 25 µM; with MDA-MB-231 breast it was above 25 µM; in the assay with SK-OV-3 ovarian, above 25 µM.

With `COC(=O)NC1C(C)OC(OC2C/C=C(/C)C3C=CC4C(OC5CC(OC6CCC(OC7CC(O)C(OC8CCC(O)C(C)O8)C(C)O7)C(C)O6)C(OC(C)=O)C(C)O5)C(C)CC(C)C4C3(C)/C(O)=C3/C(=O)OC4(CC(C=O)=CC(O)C4/C=C\2C)C3=O)CC1(C)[N+](=O)[O-]` (configuration not stated), the TGI with MCF7 breast was 4.01 µM; with HOP-92 NSCLC, 2.69 µM and 3.32 µM; in the assay on U251 CNS, 0.901 µM and 0.499 µM; with COLO 205 colon it was 2.71 µM and 1.08 µM; with M14 melanoma, 2.42 µM and 1.54 µM; in the assay on PC-3 prostate, 7.29 µM. The TGI was 5.14 µM and 3.27 µM with SNB-75 CNS; 3.32 µM and 0.891 µM in the assay with SN12C renal; 3.49 µM in the assay on MDA-MB-231 breast; 7.51 µM and 8.97 µM in the assay on SK-OV-3 ovarian. Further, the GI50 with HOP-92 NSCLC is 0.908 µM; with U251 CNS, 0.179 µM; in the assay with COLO 205 colon it was 0.321 µM; with M14 melanoma, 0.382 µM; in the assay on SNB-75 CNS, 1.06 µM; in the assay on SN12C renal it was 0.27 µM. For the same compound, the GI50 in the assay on SK-OV-3 ovarian is 2.85 µM.

On to `O=C(O)C1=C/C(=C(/c2ccccc2)c2cc(C(=O)O)c(O)c3ccccc23)c2ccccc2C1=O`, for which the TGI with MCF7 breast, in the assay with HOP-92 NSCLC, with U251 CNS, in the assay on COLO 205 colon, with M14 melanoma and with PC-3 prostate was above 100 µM each time. Besides, the TGI in the assay on SNB-75 CNS, in the assay with SN12C renal, in the assay with MDA-MB-231 breast and in the assay on SK-OV-3 ovarian was above 100 µM in each case.

Values taken from PubChem BioAssay (NCI).
